For this assay, the system named is distal colon longitudinal muscle (colon specimen). The assay can be described thus: Magnus method, effects of sodium propionate and sodium acetate (Example 5). Further details: species or system rat. The following applies: for effect on contractile force (in words) / effect on contraction frequency (in words): Example 5, 10, 30, 100 μL of 0.1 M solution. From the text:
Seven-week-old SD type male rats were reared and habituated for one week, then sacrificed to excise the colon. Then, about 1 cm of the longitudinal muscle of the colon was isolated from the distal colon (a portion at about 2 to 3 cm to the appendix side from the anus), and cut into two pieces in the longitudinal layer direction (hereinafter, this is also referred to as colon specimen). Each colon specimen was hung with resting tension of 1 g in a Magnus tube filled with Krebs buffer under the condition described below, and a mixed gas of 95% oxygen and 5% carbon dioxide was passed thereto. Then, the colon specimens were equilibrated for about one hour while changing the Krebs buffer every 15 minutes.
Distilled water was added to 6.92 g of NaCl, 0.35 g of KCl, 0.29 g of MgSO4.7H2O, 0.16 g of KH2PO4, 2.1 g of glucose, 0.28 g of CaCl2, and 2.1 g of NaHCO3 to obtain 1 L. • Temperature of Krebs buffer in the Magnus tube: 32° C. • Volume of Krebs buffer introduced into the Magnus tube: 10 mL. Preparation of Test Substances
These were used as test substance aqueous solutions in the assessment test described below. Meanwhile, distilled water was used as control.
The measurement of tension and observation of muscle conditions were carried out for 15 minutes. Tension measurement charts were recorded using a recorder adjusted such that a 5 cm displacement occurs per tension of 1 g on the measurement charts. The resulting measurement charts were used to observe peaks of tension associated with muscle contraction. The contraction frequency (times/minute) was calculated from the number of peaks (times) that appeared per unit time (minute), the contractile force (g) was calculated from the peak height (cm), and numerical values were used for evaluation. With the obtained results, comparisons between the groups were further assessed for significant differences by the Student's t-test.

[1] abbreviates: 10 μL of 0.1 mol/L aqueous solution added to 10 mL Krebs buffer.
[2] abbreviates: 30 μL of 0.1 mol/L aqueous solution added to 10 mL Krebs buffer.
Where [3] appears, read: 100 μL of 0.1 mol/L aqueous solution added to 10 mL Krebs buffer.

For `CC(=O)[O-].[Na+]` [SODIUM ACETATE, sodium acetate], the “effect on contractile force (in words)” value is given as “neither a contractile force-increasing effect nor a contractile force-suppressing effect” and the “effect on contraction frequency (in words)” value is “neither a contraction frequency-enhancing effect nor a contraction frequency-suppressing effect”.

Regarding `CCC(=O)[O-].[Na+]` [SODIUM PROPIONATE, sodium propionate], the “effect on contractile force (in words)” value is on record as “neither a contractile force-increasing effect nor a contractile force-suppressing effect” and the “effect on contraction frequency (in words)” value is reported as “neither a contraction frequency-enhancing effect nor a contraction frequency-suppressing effect”. For the same compound, under setting [1], the “CONTRACTILE FORCE” value came out at 1.15 ± 0.72 g and the “CONTRACTION FREQUENCY” value is 0.47 ± 0.14 TIMES/MINUTE. Further, under setting [2], the “CONTRACTILE FORCE” value is on record as 1.24 ± 0.77 g and the “CONTRACTION FREQUENCY” value came to 0.73 ± 0.19 TIMES/MINUTE. For the same compound, under setting [3], the “CONTRACTILE FORCE” value amounted to 1.20 ± 0.68 g and the “CONTRACTION FREQUENCY” value is 0.73 ± 0.38 TIMES/MINUTE.

The values are drawn from US9675647B2, “Prophylactic and/or therapeutic agent for functional gastrointestinal disorders” (MEIJI CO., LTD., priority 2007, dated 2017).
